Measured values taken from patent publication US10626349B2, “Cleavable surfactants” (PROMEGA CORPORATION, priority 2007, dated 2020).
“Also recorded” adds a separate entry of the source.

Tests used:
[1] = target: T1, Myoglobin from horse heart digested with trypsin (Equus caballus, UniProt P68082); test: Myoglobin/Trypsin digest, HPLC peak area versus RapiGest control; type: biochemical; details: 0.01% surfactant, trypsin 50:1, 20 minutes at 37° C.; ratio to RapiGest control, >1 = more digestion
T1 construct: Myoglobin from horse heart; from tissue; host or cells: horse heart
T1 sequence (P68082 2-154 limits assumed): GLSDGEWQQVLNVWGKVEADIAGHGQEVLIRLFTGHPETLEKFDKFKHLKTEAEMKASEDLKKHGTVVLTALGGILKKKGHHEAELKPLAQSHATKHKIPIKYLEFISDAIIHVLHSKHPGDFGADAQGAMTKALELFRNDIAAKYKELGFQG
Protocol: Myoglobin from horse heart (typically 25 μs) was digested with trypsin (Promega) at a 50:1 ratio in a volume of 125 μL (typical) of 50 mM Ammonium bicarbonate for 20 minutes at 37° C. with 0.01% RapiGest™ surfactant or 0.01% of the indicated compound of the invention (upper and lower chromatograms, respectively). TFA was added to 0.5-2% and the mixtures were incubated at 37° C. or 65° C. for 20 or 30 minutes. Degraded surfactant was removed by centrifugation at 14,000×g for 5 minutes. HPLC analysis was performed on a 25-50 μL reaction sample using an HP1050 LC system with an Agilent Sorbax SB-C18 column (3.0×100 mm, 3.5 micron) and a gradient of 0.1% TFA (97.5% initial) and Acetonitrile, 0.01% TFA (55% final condition followed by a 100% wash step) and a flow rate of 0.75 mL/min. Peptides were detected at 214 and 280 nm.
(§1) For each compound numbered below in Example 12, the rate of enhanced digestion was determined from the ratio of the surfactant peak area (surfactant # Pk. Area) to the Rapigest™ surfactant peak area (RG Pk area). Peak area was determined as the sum of all peaks integrated from 8-22 minutes.

[2] = Hydrolytic stability in 50 mM ammonium bicarbonate (reverse-phase HPLC); type: physicochemical; parameters: key: >>: compound 100% stable over course of experiment
Protocol: Hydrolytic stability was measured by monitoring the change in retention time of the intact surfactant by reverse-phase HPLC. The ½-life is defined as the time required to reach 50% degradation.

[3] = target: T2, Ovalbumin (albumin from chicken egg white) treated with PNGase F (Gallus gallus, UniProt P01012); test: Deglycosylation of ovalbumin with PNGase F (SDS-PAGE); type: biochemical; details: 0.025% surfactant, 1 hour and 20 minutes at 37° C.
T2 construct: Ovalbumin (albumin from chicken egg white); purchased Sigma
T2 sequence (P01012 2-386 limits assumed): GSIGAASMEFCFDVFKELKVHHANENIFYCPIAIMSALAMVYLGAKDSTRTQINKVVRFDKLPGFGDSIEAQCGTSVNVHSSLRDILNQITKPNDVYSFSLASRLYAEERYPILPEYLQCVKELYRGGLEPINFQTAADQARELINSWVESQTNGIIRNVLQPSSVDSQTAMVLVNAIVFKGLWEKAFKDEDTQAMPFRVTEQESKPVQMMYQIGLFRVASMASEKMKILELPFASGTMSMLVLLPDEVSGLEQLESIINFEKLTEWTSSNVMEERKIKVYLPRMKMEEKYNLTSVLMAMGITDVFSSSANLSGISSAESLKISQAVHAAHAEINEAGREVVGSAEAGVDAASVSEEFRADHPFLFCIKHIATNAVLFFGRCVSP
Protocol: Surfactants described herein were evaluated as replacements for SDS in deglycolsylation protocols. Ovalbumin (albumin from chicken egg white) was selected as a model protein. Ovalbumin is a 44.3 kD glycoprotein with 1.4 kD carbohydrate units linked to the protein. […] Surfactant compound 3266 is acid-labile and it can be easily degraded, allowing for analysis of the protein and carbohydrate using mass spectrometric analysis.
Ovalbumin (Sigma) (45 μg) was dissolved in 0.025% 3266/5 mM DTT/25 mM ammonium bicarbonate (pH ˜8) and incubated at 95° C. for 5 minutes. In the control reaction, 3266 was replaced with SDS. Deglycosylation was initiated by adding 1.5μ units PNGase F (Sigma). After 1 hour and 20 minutes of incubation at 37° C., the reactions were terminated by incubation at 95° C. for 5 minutes and an aliquot from each reaction was resolved with SDS-PAGE. […] The analyses indicate that compound 3266 is equivalent to the deglycosylation enhancement found using SDS, while eliminating the deleterious effects of SDS in concomitant spectrometric and chromatographic analysis.

[4] = Solubility of the surfactant; details: for solubility (concentration dissolved to): in 50 mM ammonium bicarbonate; for solubility in aqueous solutions (concentration dissolved to): aqueous solution
[5] = Acid and thermal degradation of the surfactant; details: for time to degradation in 0.5% TFA: 0.1% solution for 3220 and 3266
[6] = target: T3, Bacteriorhodopsin digested with chymotrypsin (Halobacterium salinarum, UniProt P02945); test: Bacteriorhodopsin/Chymotrypsin digest, HPLC peak area versus RapiGest control; type: biochemical; details: at 0.1% surfactant, BR boiled with surfactant, chymotrypsin 10:1
T3 sequence (P02945 14-261 limits assumed): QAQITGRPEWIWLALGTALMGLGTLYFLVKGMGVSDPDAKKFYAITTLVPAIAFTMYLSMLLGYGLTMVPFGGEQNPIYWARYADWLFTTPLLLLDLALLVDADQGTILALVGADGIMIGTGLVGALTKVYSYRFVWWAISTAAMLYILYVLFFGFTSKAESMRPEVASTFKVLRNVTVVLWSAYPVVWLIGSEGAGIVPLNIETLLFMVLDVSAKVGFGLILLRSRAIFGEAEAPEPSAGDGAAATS

[7] = target: T3, Bacteriorhodopsin digested with chymotrypsin; test: as above; type: biochemical; details: 0.025% surfactant
Protocol: Bacteriorhodopsin (25 μs) was heated with 0.025% Rapigest™ surfactant or the indicated compound of the invention for 5 minutes at 95° C., then digested with chymotrypsin (Sigma) at a 10:1 ratio in 125 μL 50 mM Ammonium bicarbonate for 1 hour at 37° C. After one hour TFA was added to 0.5-2% and the mixtures were incubated at 37° C. or 65° C. for 20 or 30 minutes. Degraded surfactant was removed by centrifugation at 14,000×g for 5 minutes. An aliquot of 50-100 μL of digested protein was analyzed by HPLC as described above.
Compound 3211, 3212, 3224 and Rapigest™ surfactant control for FIG. 13C reactions: Bacteriorhodopsin (25 μs) was solubilized with 0.025% compound of interest for 1-2 minutes at room temperature, then digested with chymotrypsin (Sigma) at a 10:1 ratio in 125 μL 50 mM Ammonium bicarbonate for 1 hour at 37° C. After one hour TFA was added to 0.5-2% and the mixtures were incubated at 37° C. or 65° C. for 20 or 30 minutes. Degraded surfactant was removed by centrifugation at 14,000×g for 5 minutes. An aliquot of 50-100 μL of digested protein was analyzed by HPLC as described above.
as §1

[8] = Stability and degradation profile of surfactant 3211 solutions; type: physicochemical
Protocol: FIG. 1 illustrates the degradation profile of a 0.025% solution of surfactant 3211 at 40° C., according to one embodiment.
For example, degradation of surfactant compound 3211 after protein digestion is not required because the surfactant degrades during the digestion process. The stability of a 1% solution of 3211 (10% degradation) is 8 hours at 23° C., 12 days at 4° C., and an estimated >3 years at −20° C. However, the degradation rate of surfactant 3211 increases in a typical protein digestion protocol. […] Less than about 5% of intact surfactant remains after only 2 hours.

[9] = target: Horse myoglobin digested with trypsin (Equus caballus, UniProt P68082); test: One hour digestion of myoglobin with trypsin (HPLC); type: biochemical; details: for digestion of myoglobin in one hour (in words): trypsin, 3116: 0.01%, 50:1, one hour at 37° C.
Sequence of Horse myoglobin digested with trypsin (P68082 2-154 limits assumed): as the sequence (P68082 2-154 limits assumed) above
Protocol: For example, digestion of myoglobin using standard protocol requires overnight digestion. […] Horse myoglobin was digested with trypsin at a 50:1 ratio for one hour at 37° C., alone and separately in the presence of 0.01% compound 3116.
The peaks in FIG. 3A and FIG. 3B indicate peptides or partial digestion fragments.

[10] = target: T4, beta subunit of mouse ATP synthase (Mus musculus, UniProt P56480); test: In-gel trypsin digestion of 56 kD band of mouse heart membrane protein, mass spectrometry; type: biochemical
T4 construct: Total membrane protein from mouse heart was resolved in SDS-polyacrylamide gel; from tissue; host or cells: mouse heart, total membrane protein, 56 kD SDS-PAGE band
T4 sequence (P56480 47-529): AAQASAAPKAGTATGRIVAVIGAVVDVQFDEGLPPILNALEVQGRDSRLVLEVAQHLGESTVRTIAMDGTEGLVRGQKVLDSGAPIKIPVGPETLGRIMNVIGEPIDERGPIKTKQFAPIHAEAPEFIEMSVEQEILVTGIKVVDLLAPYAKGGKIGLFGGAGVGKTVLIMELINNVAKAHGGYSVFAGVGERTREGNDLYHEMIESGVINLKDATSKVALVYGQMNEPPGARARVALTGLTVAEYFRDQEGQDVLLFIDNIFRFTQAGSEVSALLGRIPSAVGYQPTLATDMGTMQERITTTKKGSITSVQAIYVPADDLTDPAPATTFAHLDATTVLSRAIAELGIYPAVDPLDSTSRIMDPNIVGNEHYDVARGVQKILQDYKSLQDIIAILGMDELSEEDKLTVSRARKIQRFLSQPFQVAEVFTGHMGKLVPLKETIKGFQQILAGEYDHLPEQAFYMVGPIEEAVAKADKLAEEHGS
Protocol: 13. Rehydrate for 5 minutes in 20 μL 12 ng/μL Trypsin Gold (in 0.025% surfactant A/50 mM […] AmBic). Overlay with 30 μL of 0.01% surfactant A/50 mM AmBic to cover gel pieces. Incubate 1 hour at 50° C.
Total membrane protein from mouse heart was resolved in SDS-polyacrylamide gel and a single protein band was digested with a conventional digestion protocol (control) and separately with a compound 3211-assisted protocol.
A band of the protein with an approximate MW of 56 kD was excised and digested with trypsin. The digested samples were analyzed by mass spectrometry. […] Asterisks indicate identified peptides for beta subunit of mouse ATP synthase (the major protein in 56 kD band).

[11] = target: trypsin (Sus scrofa, UniProt P00761); test: Trypsin activity measured as rate of BAEE cleavage; type: biochemical; details: standard digestion conditions
Sequence of trypsin (P00761 9-231): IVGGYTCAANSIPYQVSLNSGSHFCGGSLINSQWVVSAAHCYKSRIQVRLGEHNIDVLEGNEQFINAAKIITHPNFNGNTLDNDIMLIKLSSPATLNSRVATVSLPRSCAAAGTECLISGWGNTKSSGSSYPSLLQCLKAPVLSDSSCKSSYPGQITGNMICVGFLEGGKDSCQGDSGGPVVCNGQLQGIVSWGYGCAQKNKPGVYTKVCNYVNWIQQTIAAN
Excerpt: Compound 3116 can be used as an acid-labile surfactant to facilitate the solubilization and denaturation of a protein or peptide. Compound 3116 stabilizes proteases and enhances the proteolysis activity of trypsin. See FIG. 2, which illustrates the effect of compound 3116 on trypsin activity.

[12] = surfactant conc. 0.025% in 50 mM ammonium bicarbonate
[13] = surfactant conc. 1% in 50 mM ammonium bicarbonate
[14] = 1 hour in-gel digestion with surfactant

## CCCCCCCCCCCCC(OC(=O)NCCCS(=O)(=O)O)c1ccc(OC)c(OC)c1 (stereo not drawn) [Compound 3266]
[1]
  surfactant Pk area/RG Pk area, Myoglobin/Trypsin digest: 1.2
[2]; [12]
  ½-life: >>
[2]; surfactant conc. 0.25% in 50 mM ammonium bicarbonate
  ½-life: >>
[2]; [13]
  ½-life: >>
[3]
  deglycosylation of ovalbumin by PNGase F (in words): rapidly removed carbohydrate from ovalbumin; also recorded: transformed into a deglycosylated 42.9 kD form
[4]
  solubility (concentration dissolved to): 2%
[5]; 37° C. where stated
  time to degradation in 0.5% TFA: ≤ 30 min
[5]; 3266: 5 minutes at 95° C.
  thermolability (in words): not thermolabile

## CCCCCCCCCCOc1ccc(C(OCCc2ccc(N(CCCCS(=O)(=O)[O-])CCCCS(=O)(=O)[O-])cc2)(c2ccccc2)c2ccccc2)cc1.[Na+].[Na+] [Compound 3214]
[6]
  surfactant Pk area/RG Pk area, Bacteriorhodopsin/Chymotrypsin digest: 0.6
[4]
  solubility in aqueous solutions (concentration dissolved to): 1%

## CCCCCCCCCCC(OC(=O)NCCCS(=O)(=O)O)c1ccco1 (stereo not drawn) [Compound 3211]
[1]
  surfactant Pk area/RG Pk area, Myoglobin/Trypsin digest: 1.3
[7]; BR solubilized at room temperature (not boiled), RapiGest control boiled
  surfactant Pk area/RG Pk area, Bacteriorhodopsin/Chymotrypsin digest: 0.9
[2]; 0.025%/20% AcN
  ½-life: 6 h
[2]; 0.025%/40% AcN
  ½-life: 52 h
[2]; 0.025%/60% AcN
  ½-life: >100 h
[2]; 0.025%/80% AcN
  ½-life: >>
[2]; 1%/50% AcN
  ½-life: >100 h
[2]; surfactant conc. 0.0025% in 50 mM ammonium bicarbonate
  ½-life: 0.5 h
[2]; [12]
  ½-life: 1.1 h
[2]; surfactant conc. 0.10% in 50 mM ammonium bicarbonate
  ½-life: 4.8 h
[2]; [13]
  ½-life: 21 h
[8]; 0.025% solution at 40° C., after 2 hours
  intact surfactant remaining: Less than 5%
[8]; 1% solution, 4° C.
  stability of a 1% solution (10% degradation): 12 days
[8]; 1% solution, 23° C.
  stability of a 1% solution (10% degradation): 0.33 days
[8]; 1% solution, −20° C.
  stability of a 1% solution (10% degradation), estimated: > 3 years
[9]
  digestion of myoglobin in one hour (in words): complete digestion
[10]
  increase in sequence coverage versus protocol without surfactant: 50%
[10]; [14]
  MASCOT score for beta subunit of ATP synthase: 920
  sequence coverage for beta subunit of ATP synthase: 75%
[4]
  solubility (concentration dissolved to): 1%
[5]; 37° C. where stated
  time to degradation in 0.5% TFA: 15 min
[5]; boiling without TFA
  time to degradation by boiling without TFA: 5 min
[5]; room temperature
  degradation at room temperature (in words): degrades even at room temperature at a substantial rate

## CCCCCCCCCCCC(C)(C)OC(=O)NCCCS(=O)(=O)O [Compound 3116]
[1]
  surfactant Pk area/RG Pk area, Myoglobin/Trypsin digest: 0.6
[7]; BR heated (boiled) with surfactant 5 minutes at 95° C., chymotrypsin 10:1, 1 hour at 37° C., ratio to RapiGest control
  surfactant Pk area/RG Pk area, Bacteriorhodopsin/Chymotrypsin digest: 1.5
[11]
  effect on trypsin activity (in words): stabilized trypsin activity
[9]; 0.01% 3116, trypsin 50:1, one hour at 37° C.
  identifiable peaks in HPLC chromatogram of myoglobin digest: > 15
[9]
  digestion of myoglobin in one hour (in words): largely digested within one hour
[4]
  solubility in aqueous solutions (concentration dissolved to): ≥ 0.5%
[5]; 0.01% solution, 37° C. where stated
  time to degradation of 0.01% solution: ≤ 2 h

## CCCCCCCCCCCCOS(=O)(=O)[O-].[Na+] [SDS, sodium dodecyl sulfate, reference compound]
[11]
  effect on trypsin activity (in words): inhibited trypsin activity within 30 minutes
[3]
  deglycosylation of ovalbumin by PNGase F (in words): transformed into a deglycosylated 42.9 kD form
